PubChem BioAssay AID1508603 (National Center for Advancing Translational Sciences (NCATS), 2020)

Each molecule was assayed on human liver cytosol stability, half-life (assay: NCATS Human Liver Cytosol Stability Profiling). Conditions: higher = more stable.
Description: Assay submitter (PI): Pranav Shah Ph.D.
NIH Center for Advancing Translational Sciences
Over the last few decades, chemists have become skilled at designing compounds that avoid cytochrome P (CYP) 450 mediated metabolism. Typical screening assays are performed in liver microsomal fractions and it is possible to overlook the contribution of cytosolic enzymes until much later in the drug discovery process. Few data exist on cytosolic enzyme-mediated metabolism and no reliable tools are available to chemists to help design away from such liabilities. In this study, we screened 1450 compounds for liver cytosol-mediated metabolic stability and extracted transformation rules that might help medicinal chemists in optimizing compounds with these liabilities. […] Matched molecular pairs analysis was performed in conjunction with qualitative-structure activity relationship modeling to identify chemical structure transformations affecting cytosolic stability. The transformation rules were prospectively validated on the test set. In addition, selected rules were validated on a diverse chemical library and the resulting pairs were experimentally tested to confirm whether the identified transformations could be generalized. The validation results, comprising nearly 250 library compounds and corresponding half-life data, are made publicly available. The datasets were also used to generate in silico classification models, based on different molecular descriptors and machine learning methods, to predict cytosol-mediated liabilities. To the best of our knowledge, this is the first systematic in silico effort to address cytosolic enzyme-mediated liabilities (Shah 2020).
Shah, P., Siramshetty, V.B., Zakharov, A.V. et al. Predicting liver cytosol stability of small molecules. J Cheminform 12, 21 (2020). https://doi.org/10.1186/s13321-020-00426-7
Compounds are classified as unstable (t 1/2 < 30 min) or stable (t 1/2 > 30 min).
1. Shah, P. et al. An Automated High-Throughput Metabolic Stability Assay Using an Integrated High-Resolution Accurate Mass Method and Automated Data Analysis Software. Drug Metab Dispos 44, 1653-1661 (2016). PMID 27417180
`CC(C)CN1C(=O)c2cccn2CC1C(=O)N1CCN(C)CC1` (stereo not drawn) gave a half-life of 107 min.
Molecule `COc1ccc(CN2CC(Oc3ccc(F)c(C)c3)C2)cc1` has a half-life of 21.6 min.
In the case of `COc1ccc(CN2CC(Oc3ccc(F)cc3C)C2)cc1`, the half-life is reported as 21 min.
Work on `O=C(c1cccs1)N1CCC(Oc2ccccc2)C1` (stereo not drawn) yielded a half-life of 38.3 min.
`N#Cc1cccc(-c2c(C(=O)NC3CC3)nc3sccn23)c1` showed a half-life of 95.2 min.
For `COc1ccc(CN2CC(N3CCc4ccccc43)C2)cc1`, the half-life was 82 min.
With `COc1cccc(CN2CCOC[C@H](O)C2)c1` the half-life was 28.2 min.
`COc1cccc(-c2c(C(=O)N3CCOCC3)nc3sccn23)c1` showed a half-life greater than 120 min.
With `COc1cccc(-c2c(C(=O)Nc3ccc(C)cc3)nc3sccn23)c1` the half-life was 93 min.
In the case of `COc1cccc(-c2c(C(=O)N3CCCCC3)nc3sccn23)c1`, the half-life is reported as 114 min.
With `COc1ccc(CN2CCC(N3CCOC3=O)CC2)cc1` the half-life was greater than 120 min.
With `CN1CCN(C(=O)Cc2cccn2-c2ccc(F)cc2)CC1` the half-life was greater than 120 min.
`C[C@@]1(O)CCN(Cc2ccc(C#N)cc2)C[C@H]1N1CCCC1` showed a half-life greater than 120 min.
In the case of `N#Cc1cccc(-c2cn3c(n2)N(C(=O)c2ccoc2)CCC3)c1`, the half-life is reported as greater than 120 min.
In the case of `Cc1cc2cc(-c3c(C)noc3C)nc(Nc3ccccc3)c2o1`, the half-life is reported as 35.6 min.
In the case of `O=C(c1cccnc1)N1CCC(Oc2cccc(F)c2)C1` (stereo not drawn), the half-life is reported as greater than 120 min.
In the case of `CCN1CCN(C(=O)c2cc(-c3ccc(F)cc3)nc3c2cnn3C)CC1`, the half-life is reported as greater than 120 min.
`Cc1cc(F)ccc1OC1CN(Cc2ccc(C#N)cc2)C1` gave a half-life of 35.4 min.
`O=C(NCCCn1ccnc1)c1ccc(-c2ncc3cnc(-c4cccc(F)c4)cn23)cc1` was tested, and the half-life was 50.8 min.
Work on `COCCNc1nc(N)nc2c1CCN(C(=O)c1cscn1)CC2` yielded a half-life greater than 120 min.
Work on `N#Cc1cncc(N2CC3CCC(C2)N3CC(F)(F)F)c1` yielded a half-life greater than 120 min.
Molecule `COc1ccccc1-c1[nH]nc2ncc(-c3cccc(F)c3)nc12` has a half-life greater than 120 min.
Work on `N#Cc1ccc(CN2C[C@@H](CO)[C@H](c3ccncc3)C2)cc1` yielded a half-life of 107 min.
Molecule `N#Cc1ccc(C(=O)N2CCOC[C@H](Oc3cnccn3)C2)cc1` has a half-life greater than 120 min.
`O=C(Nc1ncc(-c2cccc(F)c2)c2c1OCC2)c1ccncc1` showed a half-life greater than 120 min.
Work on `CC1(c2ccccc2)N(Cc2ccccc2)C(=O)OC12CCN(Cc1cccc(C#N)c1)CC2` (stereo not drawn) yielded a half-life greater than 120 min.
With `N#Cc1cccc(-c2c(C(=O)N3CCCCC3)nc3sccn23)c1` the half-life was 103 min.
Molecule `O=C(NCCc1cnc[nH]1)c1ccc(-c2ncc3cnc(-c4cccc(F)c4)cn23)cc1` has a half-life of 14.9 min.
For `N#Cc1cccc(CN2CC(COc3ccccc3)C3(C2)CN(c2ccccc2)C3)c1` (stereo not drawn), the half-life was 41.6 min.
`CCN1CCN(C(=O)c2nc3sccn3c2-c2cccc(OC)c2)CC1` gave a half-life greater than 120 min.
In the case of `CC(C)(C)c1coc([C@@H]2COCCN2Cc2cccc(C#N)c2)n1`, the half-life is reported as 56.6 min.
With `COc1ccc(-c2[nH]nc3ncc(-c4cccc(F)c4)nc23)c(C)c1` the half-life was 75.8 min.
With `CCN1CCN(C(=O)c2nc3sccn3c2-c2cccc(C#N)c2)CC1` the half-life was greater than 120 min.
Molecule `O=C(O)c1ccc(-c2ccc(N3CCCCCC3)nc2)cc1` has a half-life greater than 120 min.
In the case of `CN1c2cc(C(=O)Nc3ccc(S(N)(=O)=O)cc3)ccc2C(=O)N2CCCCC21` (stereo not drawn), the half-life is reported as greater than 120 min.
With `N#Cc1ccnc(-c2nnc3ccc(NCc4cnccn4)nn23)c1` the half-life was greater than 120 min.
Work on `N#Cc1cccc(CN2C[C@@H](CO)[C@H](c3ccccn3)C2)c1` yielded a half-life of 57.4 min.
Molecule `O=C(c1ccoc1)N1CCC(Oc2cccc(F)c2)C1` (stereo not drawn) has a half-life of 70.5 min.
Molecule `CN1CCOC2(CCN(Cc3cccc(C#N)c3)CC2)C1=O` has a half-life greater than 120 min.
For `O=C(O)c1ccc2c(c1)n(Cc1cccc(F)c1)c(=O)c1ccnn12`, the half-life was greater than 120 min.
`COc1ccc(CN2CCC(N3CCNC3=O)CC2)cc1` showed a half-life greater than 120 min.
With `Cn1cnc2ccc(Nc3cccc(F)c3)nc2c1=O` the half-life was 115 min.
`N#Cc1ccc(CN2CCC(N3CCOC3=O)CC2)cc1` gave a half-life greater than 120 min.
